PubChem BioAssay AID330 (DTP/NCI, 2004)
Values joined by “and” are separate entries in the source; they are usually repeats but may differ in a detail not shown here. Equal values may be shown once. Inconclusive results and toxic doses are left out. How the source made its calls: active means survival T/C of 150% or more; inactive means T/C below 125% in these data.

Tested on: P388 leukemia ip, CD2F1 mice, survival T/C
Test: NCI In Vivo Anticancer Drug Screen. Data for tumor model P388 Leukemia (intraperitoneal) in CD2F1 (CDF1) mice
Details: endpoint: median survival time, higher = longer survival
In short: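 Mice carrying the transplanted tumor received test compound or vehicle. Survival was recorded in each group, and the value is the treated-group measurement divided by that of the vehicle-treated control group.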

[1] = dose: 50.0 mg/kg/injection, schedule: Q01DX009 (ip), vehicle: Klucel (hydroxypropylcellulose) (HPC)
[2] = dose: 100.0 mg/kg/injection, schedule: Q01DX009 (ip), vehicle: Klucel (hydroxypropylcellulose) (HPC)
[3] = dose: 200.0 mg/kg/injection, schedule: Q01DX009 (ip), vehicle: Klucel (hydroxypropylcellulose) (HPC)
[4] = dose: 100.0 mg/kg/injection, schedule: Q04DX003 (ip), vehicle: saline
[5] = dose: 200.0 mg/kg/injection, schedule: Q04DX003 (ip), vehicle: saline
[6] = dose: 400.0 mg/kg/injection, schedule: Q04DX003 (ip), vehicle: saline
[7] = dose: 60.0 mg/kg/injection, schedule: Q01DX005 (ip), vehicle: Klucel (hydroxypropylcellulose) (HPC)
[8] = dose: 50.0 mg/kg/injection, schedule: Q01DX009 (ip), vehicle: saline
[9] = dose: 50.0 mg/kg/injection, schedule: Q01DX005 (ip), vehicle: Klucel (hydroxypropylcellulose) (HPC)
[10] = dose: 100.0 mg/kg/injection, schedule: Q01DX005 (ip), vehicle: Klucel (hydroxypropylcellulose) (HPC)
[11] = dose: 6.25 mg/kg/injection, schedule: Q01DX005 (ip), vehicle: Klucel (hydroxypropylcellulose) (HPC)
[12] = dose: 12.5 mg/kg/injection, schedule: Q01DX005 (ip), vehicle: Klucel (hydroxypropylcellulose) (HPC)
[13] = dose: 25.0 mg/kg/injection, schedule: Q01DX005 (ip), vehicle: Klucel (hydroxypropylcellulose) (HPC)
[14] = dose: 50.0 mg/kg/injection, schedule: Q04DX003 (ip), vehicle: saline with Tween-80
[15] = dose: 100.0 mg/kg/injection, schedule: Q04DX003 (ip), vehicle: saline with Tween-80
[16] = dose: 200.0 mg/kg/injection, schedule: Q04DX003 (ip), vehicle: saline with Tween-80
[17] = dose: 200.0 mg/kg/injection, schedule: Q01DX005 (ip), vehicle: Klucel (hydroxypropylcellulose) (HPC)

Measured: T/C

CC1(C)OCC(C(OS(C)(=O)=O)C2OC(C)(C)OC2COS(C)(=O)=O)O1 (stereo not drawn)
inactive: [1] 91 % of control | [2] 97 % of control | [3] 99 % of control

O=C1C2=C(C(=O)C3=C1C1C=CC3C1)C1C=CC2C1
inactive: dose: 100.0 mg/kg/injection, schedule: Q04DX003 (ip), vehicle: Klucel (hydroxypropylcellulose) (HPC) 118 % of control | dose: 200.0 mg/kg/injection, schedule: Q04DX003 (ip), vehicle: Klucel (hydroxypropylcellulose) (HPC) 102 % of control | dose: 400.0 mg/kg/injection, schedule: Q04DX003 (ip), vehicle: Klucel (hydroxypropylcellulose) (HPC) 96 % of control

Cn1nnnc1CC(=O)O
inactive: [4] 99 % of control | [5] 108 % of control | [6] 103 % of control

CSc1nsc(SC)c1-c1ccc(Cl)cc1
inactive: [1] 99 % of control | [2] 100 % of control | [3] 92 % of control

N#Cc1cnc(N)[nH]c1=O
inactive: dose: 15.0 mg/kg/injection, schedule: Q01DX005 (ip), vehicle: Klucel (hydroxypropylcellulose) (HPC) 101 % of control | dose: 30.0 mg/kg/injection, schedule: Q01DX005 (ip), vehicle: Klucel (hydroxypropylcellulose) (HPC) 97 % of control | [7] 98 % of control and 99 % of control

O=C(OCOC(=O)N1CCOCC1)N1CCOCC1
inactive: dose: 60.0 mg/kg/injection, schedule: Q01DX005 (ip), vehicle: saline with Tween-80 105 % of control | dose: 240.0 mg/kg/injection, schedule: Q01DX005 (ip), vehicle: saline with Tween-80 94 % of control

O=C(O)c1ccc[c]([Sb]2(=[O])[O]C(CO)C(C(O)C(O)C(=O)O)[O]2)c1 (stereo not drawn)
inactive: dose: 50.0 mg/kg/injection, schedule: Q01DX005 (ip), vehicle: saline 100 % of control | dose: 100.0 mg/kg/injection, schedule: Q01DX005 (ip), vehicle: saline 100 % of control | dose: 200.0 mg/kg/injection, schedule: Q01DX005 (ip), vehicle: saline 104 % of control

Cc1ccnc(-n2c(N)cc(=O)[nH]c2=S)c1
inactive: dose: 50.0 mg/kg/injection, schedule: Q01DX001 (ip), vehicle: saline with Tween-80 86 % of control | dose: 100.0 mg/kg/injection, schedule: Q01DX001 (ip), vehicle: saline with Tween-80 118 % of control | dose: 200.0 mg/kg/injection, schedule: Q01DX001 (ip), vehicle: saline with Tween-80 100 % of control

O=c1[nH]c(-c2ccccc2)nc2nc3ccc([N+](=O)[O-])cc3[n+]([O-])c12
inactive: [8] 93 % of control | dose: 100.0 mg/kg/injection, schedule: Q01DX009 (ip), vehicle: saline 92 % of control | dose: 200.0 mg/kg/injection, schedule: Q01DX009 (ip), vehicle: saline 97 % of control

O=S1(=O)CN2C=CC=CC2=N1
inactive: dose: 6.25 mg/kg/injection, schedule: Q01DX009 (ip), vehicle: saline with Tween-80 106 % of control | dose: 12.5 mg/kg/injection, schedule: Q01DX009 (ip), vehicle: saline with Tween-80 104 % of control | dose: 25.0 mg/kg/injection, schedule: Q01DX009 (ip), vehicle: saline with Tween-80 105 % of control | dose: 50.0 mg/kg/injection, schedule: Q01DX009 (ip), vehicle: saline with Tween-80 105 % of control

CC1NS(=O)(=O)c2ccccc2C1=O (stereo not drawn)
inactive: [4] 100 % of control | [5] 101 % of control | [6] 108 % of control

COc1cc([C@@H]2c3cc(OC(C)=O)c(OC)cc3C[C@@H]3C(=O)OC[C@@H]23)ccc1OC(C)=O
inactive: dose: 50.0 mg/kg/injection, schedule: Q01DX005 (ip), vehicle: saline with Tween-80 98 % of control | dose: 100.0 mg/kg/injection, schedule: Q01DX005 (ip), vehicle: saline with Tween-80 93 % of control | dose: 200.0 mg/kg/injection, schedule: Q01DX005 (ip), vehicle: saline with Tween-80 93 % of control

O/N=C(/CC(c1ccccc1)N1CCOCC1)c1ccccc1 (stereo not drawn)
inactive: [9] 93 % of control | [10] 90 % of control

C[CH2][Sn]([Cl])([CH2]C)[O][Sn]([CH2]C)([CH2]C)[O][Sn]([Cl])([CH2]C)[CH2]C
inactive: [11] 118 % of control and 121 % of control | [12] 113 % of control | [13] 111 % of control

COc1cc(/C=C/C(N)=O)cc(OC)c1OC
inactive: [14] 94 % of control | [15] 90 % of control | [16] 99 % of control | dose: 400.0 mg/kg/injection, schedule: Q04DX003 (ip), vehicle: saline with Tween-80 100 % of control

CCCCCCCCCC[N+]1([O-])CCCCC1
inactive: [8] 97 % of control

COc1c2ccc(-c3ccccc3)oc-2cc(=O)c1C
inactive: dose: 2.0 mg/kg/injection, schedule: Q01DX005 (ip), vehicle: Klucel + Tween-80 100 % of control | dose: 4.0 mg/kg/injection, schedule: Q01DX005 (ip), vehicle: Klucel + Tween-80 100 % of control | dose: 8.0 mg/kg/injection, schedule: Q01DX005 (ip), vehicle: Klucel + Tween-80 109 % of control | dose: 16.0 mg/kg/injection, schedule: Q01DX005 (ip), vehicle: Klucel + Tween-80 92 % of control

C=C(Cl)C(=NC(C)(C)C)Nc1cccc(Cl)c1
inactive: [11] 112 % of control | [12] 114 % of control | [13] 112 % of control | [9] 105 % of control | [10] 115 % of control | [17] 118 % of control

COC(=O)[C@@]12OC[C@]34C([C@@H](O)C1O)[C@@]1(C)CC(=O)C(OS(=O)(=O)C(F)(F)F)=C(C)C1C[C@H]3OC(=O)[C@H](OC(=O)/C=C(\C)C(C)C)[C@H]42 (stereo partly drawn)
inactive: dose: 0.25 mg/kg/injection, schedule: Q01DX005 (ip), vehicle: DMSO 101 % of control | dose: 0.5 mg/kg/injection, schedule: Q01DX005 (ip), vehicle: DMSO 108 % of control | dose: 1.0 mg/kg/injection, schedule: Q01DX005 (ip), vehicle: DMSO 109 % of control and 97 % of control | dose: 2.0 mg/kg/injection, schedule: Q01DX005 (ip), vehicle: DMSO 107 % of control and 118 % of control | dose: 4.0 mg/kg/injection, schedule: Q01DX005 (ip), vehicle: DMSO 107 % of control | dose: 8.0 mg/kg/injection, schedule: Q01DX005 (ip), vehicle: DMSO 115 % of control

CC1=CC(=O)C2(C)C1=CC(=O)C13COC4OC(CC1C4=O)C(O)C23 (stereo not drawn)
inactive: dose: 1.0 mg/kg/injection, schedule: Q01DX009 (ip), vehicle: Klucel (hydroxypropylcellulose) (HPC) 97 % of control | dose: 2.0 mg/kg/injection, schedule: Q01DX009 (ip), vehicle: Klucel (hydroxypropylcellulose) (HPC) 94 % of control | dose: 4.0 mg/kg/injection, schedule: Q01DX009 (ip), vehicle: Klucel (hydroxypropylcellulose) (HPC) 98 % of control | dose: 8.0 mg/kg/injection, schedule: Q01DX009 (ip), vehicle: Klucel (hydroxypropylcellulose) (HPC) 102 % of control

O=C(O)/C=C\S(=O)(=O)O
inactive: dose: 25.0 mg/kg/injection, schedule: Q04DX002 (ip), vehicle: saline 116 % of control | dose: 50.0 mg/kg/injection, schedule: Q04DX002 (ip), vehicle: saline 106 % of control | dose: 100.0 mg/kg/injection, schedule: Q04DX002 (ip), vehicle: saline 93 % of control

CC(C)(C)c1cc(C[N+](C)(C)C)c(O)c(C(C)(C)C)c1
inactive: dose: 12.5 mg/kg/injection, schedule: Q01DX005 (ip), vehicle: distilled water + alcohol 95 % of control | dose: 25.0 mg/kg/injection, schedule: Q01DX005 (ip), vehicle: distilled water + alcohol 96 % of control | dose: 50.0 mg/kg/injection, schedule: Q01DX005 (ip), vehicle: distilled water + alcohol 101 % of control and 104 % of control

N#CCSc1nc(N)nc2nc[nH]c12
inactive: dose: 50.0 mg/kg/injection, schedule: Q01DX009 (ip), vehicle: saline sonified 95 % of control | [14] 95 % of control | dose: 100.0 mg/kg/injection, schedule: Q01DX009 (ip), vehicle: saline sonified 100 % of control | [15] 100 % of control | dose: 200.0 mg/kg/injection, schedule: Q01DX009 (ip), vehicle: saline sonified 95 % of control | [16] 95 % of control

c1ccc(-c2cnc3cccnc3n2)cc1
inactive: [7] 100 % of control | dose: 120.0 mg/kg/injection, schedule: Q01DX005 (ip), vehicle: Klucel (hydroxypropylcellulose) (HPC) 99 % of control

O=C1C=C2CCCCCCCCCC(C1)C2 (stereo not drawn)
inactive: [9] 99 % of control | [10] 99 % of control | [17] 89 % of control
